Measured values: article PMC3944532, “Mode of Action of Diterpene and Characterization of Related Metabolites from the Soft Coral, Xenia elongata” (Marine Drugs, 2014)
Where two headings read alike, the source gives them in different places.

Experiments:
W2 cells = assay: Apoptosis induction assay (MTT viability), apoptosis competent W2 cells; assay type: cell-based, mouse; conditions: for optimal concentration for apoptosis induction: MTT, 0 to 48 h, apoptosis induction = at least 20% death of W2 cells and 10% or higher growth of D3 cells; for cell death in W2 cells: apoptosis competent W2
Description: In order to assess the pro-apoptotic activities of these compounds as a marker for their potential anticancer efficacy, methanol soluble fractions of Xenia extracts were tested for apoptosis induction in an MTT assay using the apoptosis competent W2 and apoptosis resistant D3 cells, as described in our previous work. […] To quantify apoptosis induction, viability was determined using an MTT assay. Measurements were taken at time 0 and 48 h after addition of compounds in different concentrations. Viability was calculated as the difference between time 0 (addition of compound) and 48 h. Apoptosis induction was defined as at least 20% death of W2 cells and a 10% or higher growth of D3 cells by MTT assay. The optimal concentration of the compounds for apoptosis induction was determined based on the dose response of the two cells lines by MTT assay. […] Treatment of W2 and D3 cells with 0.1 µM staurosporine, a protein kinase inhibitor and potent inducer of apoptosis, was included as a positive control for apoptosis induction and for comparison. Thus, the diterpenes we have isolated and characterized effectively and specifically activate apoptosis in immortalized mammalian epithelial cells.
Apoptosis induction in the presence of compounds (2, 3) was carried out in the following manner. W2 (apoptosis competent) and D3 (apoptosis defective) cells were plated in 96- and 6-well plates and incubated for 24 h, after which they were evenly spread at about 50% confluency. At this time, compounds dissolved in DMSO and diluted in growth medium (DMEM) were added to the cells at various concentrations. DMSO concentration was kept at 0.5% in all wells. Plates were incubated for 24, 48 and 72 h. Cell viability was determined using a modification of the MTT assay, where the reduction of yellow tertazolium salt (MTT—[…]) to purple formazan indicates mitochondrial activity, and thus cell viability. Cells were incubated with 0.5 mg/mL MTT for 3 h. Supernatant was aspirated and DMSO was added to dissolve the formazan crystals. After 30 min incubation at 37 °C, with shaking, absorbance was read at 570 nm on a Spectra MAX 250 (Molecular Devices) plate reader. Differential growth from time 0 to 48 h was calculated. Starurosporine, an apoptosis inducer, and DMSO were used as positive and negative controls, respectively.

D3 cells = assay: Apoptosis induction assay (MTT viability), apoptosis resistant D3 cells deficient in Bak and Bax; assay type: cell-based, mouse
Description: In order to assess the pro-apoptotic activities of these compounds as a marker for their potential anticancer efficacy, methanol soluble fractions of Xenia extracts were tested for apoptosis induction in an MTT assay using the apoptosis competent W2 and apoptosis resistant D3 cells, as described in our previous work. […] To quantify apoptosis induction, viability was determined using an MTT assay. Measurements were taken at time 0 and 48 h after addition of compounds in different concentrations. Viability was calculated as the difference between time 0 (addition of compound) and 48 h. Apoptosis induction was defined as at least 20% death of W2 cells and a 10% or higher growth of D3 cells by MTT assay. The optimal concentration of the compounds for apoptosis induction was determined based on the dose response of the two cells lines by MTT assay. […]
Apoptosis induction in the presence of compounds (2, 3) was carried out in the following manner. […] Cell viability was determined using a modification of the MTT assay, where the reduction of yellow tertazolium salt (MTT—[…]) to purple formazan indicates mitochondrial activity, and thus cell viability. […] After 30 min incubation at 37 °C, with shaking, absorbance was read at 570 nm on a Spectra MAX 250 (Molecular Devices) plate reader. Differential growth from time 0 to 48 h was calculated. […]

HDAC1 = HDAC1 (Homo sapiens, UniProt Q13547); assay: HDAC inhibition assay, class I, fluorogenic peptide RHKK(Ac)AMC; assay type: biochemical; conditions: up to 50 µM
HDAC2 = HDAC2 (Homo sapiens, UniProt Q92769); assay: as above; assay type: biochemical; conditions: up to 50 µM
HDAC3 = HDAC3 (Homo sapiens, UniProt O15379); assay: as above; assay type: biochemical; conditions: up to 50 µM
HDAC8 = target: T1, HDAC8 (Homo sapiens, UniProt Q9BY41); assay: HDAC inhibition assay, class I, fluorogenic peptide RHK(Ac)K(Ac)AMC; assay type: biochemical; conditions: up to 50 µM
T1 sequence (Q9BY41 1-377): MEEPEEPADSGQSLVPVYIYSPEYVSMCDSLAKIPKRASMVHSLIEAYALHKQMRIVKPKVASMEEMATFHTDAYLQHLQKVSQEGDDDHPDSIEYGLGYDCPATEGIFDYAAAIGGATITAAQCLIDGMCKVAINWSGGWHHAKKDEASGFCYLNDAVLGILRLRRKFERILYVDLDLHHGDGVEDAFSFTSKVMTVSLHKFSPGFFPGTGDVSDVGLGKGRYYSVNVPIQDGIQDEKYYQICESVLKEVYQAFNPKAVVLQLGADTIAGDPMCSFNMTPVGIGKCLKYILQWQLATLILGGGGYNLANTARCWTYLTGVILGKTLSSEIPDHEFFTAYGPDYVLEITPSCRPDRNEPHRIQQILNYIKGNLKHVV

HDAC6 = target: T2, HDAC6 (Homo sapiens, UniProt Q9UBN7); assay: HDAC inhibition assay, class II B, fluorogenic peptide RHKK(Ac)AMC; assay type: biochemical
T2 sequence (Q9UBN7 1-1215): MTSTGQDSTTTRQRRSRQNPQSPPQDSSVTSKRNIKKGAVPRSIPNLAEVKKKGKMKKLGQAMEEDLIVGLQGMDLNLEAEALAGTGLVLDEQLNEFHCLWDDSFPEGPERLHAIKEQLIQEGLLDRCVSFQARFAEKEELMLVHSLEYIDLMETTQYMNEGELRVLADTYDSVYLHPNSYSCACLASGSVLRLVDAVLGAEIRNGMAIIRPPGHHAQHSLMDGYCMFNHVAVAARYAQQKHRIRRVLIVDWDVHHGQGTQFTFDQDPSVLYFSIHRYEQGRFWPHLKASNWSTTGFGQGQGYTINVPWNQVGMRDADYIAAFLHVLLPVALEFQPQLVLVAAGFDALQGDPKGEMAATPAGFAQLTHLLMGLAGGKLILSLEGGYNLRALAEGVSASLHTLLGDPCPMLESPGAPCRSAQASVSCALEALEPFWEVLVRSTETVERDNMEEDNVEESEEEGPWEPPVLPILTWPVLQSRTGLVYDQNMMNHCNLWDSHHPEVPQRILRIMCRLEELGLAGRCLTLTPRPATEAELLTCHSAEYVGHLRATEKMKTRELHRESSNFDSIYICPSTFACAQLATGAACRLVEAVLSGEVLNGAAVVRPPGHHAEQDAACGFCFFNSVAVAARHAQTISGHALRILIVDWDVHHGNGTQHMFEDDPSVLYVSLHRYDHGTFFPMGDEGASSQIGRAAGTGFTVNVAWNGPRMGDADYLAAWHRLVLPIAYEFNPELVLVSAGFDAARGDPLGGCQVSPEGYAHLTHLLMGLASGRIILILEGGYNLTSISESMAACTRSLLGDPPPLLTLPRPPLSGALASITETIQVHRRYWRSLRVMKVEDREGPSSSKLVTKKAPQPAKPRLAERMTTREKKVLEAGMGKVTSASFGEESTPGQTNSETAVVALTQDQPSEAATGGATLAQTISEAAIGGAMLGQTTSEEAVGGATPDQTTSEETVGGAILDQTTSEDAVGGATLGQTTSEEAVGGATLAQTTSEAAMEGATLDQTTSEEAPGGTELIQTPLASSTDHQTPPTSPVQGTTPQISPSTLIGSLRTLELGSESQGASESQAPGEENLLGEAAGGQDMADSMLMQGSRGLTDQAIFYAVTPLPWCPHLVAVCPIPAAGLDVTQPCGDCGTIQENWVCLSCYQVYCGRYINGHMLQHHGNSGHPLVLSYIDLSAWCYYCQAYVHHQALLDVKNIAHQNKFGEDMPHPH

HDAC4 = HDAC4 (Homo sapiens, UniProt P56524); assay: HDAC inhibition assay, class II A, fluorogenic HDAC Class2a substrate; conditions: up to 100 µM
HDAC5 = HDAC5 (Homo sapiens, UniProt Q9UQL6); assay: as above; conditions: up to 100 µM
HDAC7 = target: T3, HDAC7 (Homo sapiens, UniProt Q8WUI4); assay: as above; conditions: up to 100 µM
T3 sequence (Q8WUI4 1-952): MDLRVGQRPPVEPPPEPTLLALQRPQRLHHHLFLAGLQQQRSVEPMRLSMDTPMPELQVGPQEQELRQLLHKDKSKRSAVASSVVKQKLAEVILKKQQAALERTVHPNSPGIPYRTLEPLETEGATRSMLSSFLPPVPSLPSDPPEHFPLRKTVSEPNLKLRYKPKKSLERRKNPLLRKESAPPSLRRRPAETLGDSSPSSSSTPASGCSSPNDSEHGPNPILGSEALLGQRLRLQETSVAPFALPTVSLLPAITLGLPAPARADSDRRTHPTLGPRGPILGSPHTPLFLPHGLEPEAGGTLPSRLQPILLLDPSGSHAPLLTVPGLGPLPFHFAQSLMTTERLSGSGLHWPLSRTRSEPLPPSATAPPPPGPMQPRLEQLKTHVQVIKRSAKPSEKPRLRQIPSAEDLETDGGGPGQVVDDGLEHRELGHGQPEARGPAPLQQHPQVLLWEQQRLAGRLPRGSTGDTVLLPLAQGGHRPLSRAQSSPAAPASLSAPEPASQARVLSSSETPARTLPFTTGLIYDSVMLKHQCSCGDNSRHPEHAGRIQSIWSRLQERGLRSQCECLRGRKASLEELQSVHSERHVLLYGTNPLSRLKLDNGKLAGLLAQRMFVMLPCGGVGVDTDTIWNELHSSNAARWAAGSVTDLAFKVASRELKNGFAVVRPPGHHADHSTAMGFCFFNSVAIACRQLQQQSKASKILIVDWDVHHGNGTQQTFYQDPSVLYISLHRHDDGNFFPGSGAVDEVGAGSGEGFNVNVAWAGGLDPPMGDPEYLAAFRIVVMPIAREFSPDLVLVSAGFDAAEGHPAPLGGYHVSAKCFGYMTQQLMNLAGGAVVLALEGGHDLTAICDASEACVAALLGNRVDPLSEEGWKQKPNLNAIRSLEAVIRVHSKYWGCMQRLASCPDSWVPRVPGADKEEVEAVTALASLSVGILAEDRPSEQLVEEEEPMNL

HDAC9 = HDAC9 (Homo sapiens, UniProt Q9UKV0); assay: as above; conditions: up to 100 µM
P-388 = P-388 cells; cited from earlier work
HT-29 = HT-29 cells; cited from earlier work
A549 = A549 cells; cited from earlier work

HDAC9, sequence (Q9UKV0 whole entry): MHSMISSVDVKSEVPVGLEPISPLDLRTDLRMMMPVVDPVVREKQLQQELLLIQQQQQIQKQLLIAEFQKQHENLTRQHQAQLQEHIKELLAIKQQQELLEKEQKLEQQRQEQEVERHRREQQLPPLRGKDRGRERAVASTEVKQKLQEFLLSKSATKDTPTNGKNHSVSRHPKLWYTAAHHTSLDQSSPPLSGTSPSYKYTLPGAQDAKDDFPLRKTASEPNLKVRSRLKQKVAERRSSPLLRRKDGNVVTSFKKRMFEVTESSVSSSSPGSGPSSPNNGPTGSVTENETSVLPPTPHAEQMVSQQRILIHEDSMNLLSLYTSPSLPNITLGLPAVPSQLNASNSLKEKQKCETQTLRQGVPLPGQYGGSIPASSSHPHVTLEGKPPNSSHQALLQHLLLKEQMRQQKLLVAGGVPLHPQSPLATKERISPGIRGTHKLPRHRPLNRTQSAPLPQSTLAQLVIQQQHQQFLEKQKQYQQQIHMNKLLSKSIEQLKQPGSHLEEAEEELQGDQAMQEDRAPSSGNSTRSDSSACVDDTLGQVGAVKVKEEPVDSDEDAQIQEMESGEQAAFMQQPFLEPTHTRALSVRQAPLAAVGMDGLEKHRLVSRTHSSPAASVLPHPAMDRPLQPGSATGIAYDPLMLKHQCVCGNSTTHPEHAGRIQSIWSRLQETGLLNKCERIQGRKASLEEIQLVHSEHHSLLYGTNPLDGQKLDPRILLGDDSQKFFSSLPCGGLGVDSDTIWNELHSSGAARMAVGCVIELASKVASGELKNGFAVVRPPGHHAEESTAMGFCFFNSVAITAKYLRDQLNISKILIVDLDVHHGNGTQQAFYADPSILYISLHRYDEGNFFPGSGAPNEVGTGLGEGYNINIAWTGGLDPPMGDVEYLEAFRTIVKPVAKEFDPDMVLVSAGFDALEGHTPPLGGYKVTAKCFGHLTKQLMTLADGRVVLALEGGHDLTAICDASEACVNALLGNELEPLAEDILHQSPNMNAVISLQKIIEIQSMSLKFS
HDAC2, sequence (Q92769 whole entry): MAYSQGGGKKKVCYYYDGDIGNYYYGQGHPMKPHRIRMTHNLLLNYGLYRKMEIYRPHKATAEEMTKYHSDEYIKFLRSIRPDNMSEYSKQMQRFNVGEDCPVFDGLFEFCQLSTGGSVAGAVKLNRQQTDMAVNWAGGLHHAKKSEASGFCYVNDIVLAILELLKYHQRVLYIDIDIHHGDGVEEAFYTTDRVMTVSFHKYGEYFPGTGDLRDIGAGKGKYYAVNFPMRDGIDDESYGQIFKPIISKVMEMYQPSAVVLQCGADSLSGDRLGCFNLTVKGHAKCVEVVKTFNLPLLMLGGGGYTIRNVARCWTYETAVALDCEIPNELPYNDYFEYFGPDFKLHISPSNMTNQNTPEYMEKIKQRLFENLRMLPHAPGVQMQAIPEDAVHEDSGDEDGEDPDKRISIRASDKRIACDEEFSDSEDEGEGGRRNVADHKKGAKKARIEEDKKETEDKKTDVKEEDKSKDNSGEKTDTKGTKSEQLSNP
HDAC1, sequence (Q13547 whole entry): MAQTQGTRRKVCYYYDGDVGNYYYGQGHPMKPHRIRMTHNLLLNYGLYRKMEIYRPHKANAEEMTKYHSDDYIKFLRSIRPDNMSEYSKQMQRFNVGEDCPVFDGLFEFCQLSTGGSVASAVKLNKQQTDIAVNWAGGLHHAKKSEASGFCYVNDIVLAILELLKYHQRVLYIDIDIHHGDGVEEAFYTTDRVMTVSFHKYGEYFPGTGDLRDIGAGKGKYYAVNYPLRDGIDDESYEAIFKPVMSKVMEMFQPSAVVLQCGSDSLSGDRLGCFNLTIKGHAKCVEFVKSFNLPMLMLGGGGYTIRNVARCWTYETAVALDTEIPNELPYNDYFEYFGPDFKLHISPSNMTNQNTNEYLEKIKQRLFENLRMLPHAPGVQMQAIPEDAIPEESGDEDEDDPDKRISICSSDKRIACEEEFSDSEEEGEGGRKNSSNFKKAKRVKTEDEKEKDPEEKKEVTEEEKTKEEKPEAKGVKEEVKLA
HDAC5, sequence (Q9UQL6 whole entry): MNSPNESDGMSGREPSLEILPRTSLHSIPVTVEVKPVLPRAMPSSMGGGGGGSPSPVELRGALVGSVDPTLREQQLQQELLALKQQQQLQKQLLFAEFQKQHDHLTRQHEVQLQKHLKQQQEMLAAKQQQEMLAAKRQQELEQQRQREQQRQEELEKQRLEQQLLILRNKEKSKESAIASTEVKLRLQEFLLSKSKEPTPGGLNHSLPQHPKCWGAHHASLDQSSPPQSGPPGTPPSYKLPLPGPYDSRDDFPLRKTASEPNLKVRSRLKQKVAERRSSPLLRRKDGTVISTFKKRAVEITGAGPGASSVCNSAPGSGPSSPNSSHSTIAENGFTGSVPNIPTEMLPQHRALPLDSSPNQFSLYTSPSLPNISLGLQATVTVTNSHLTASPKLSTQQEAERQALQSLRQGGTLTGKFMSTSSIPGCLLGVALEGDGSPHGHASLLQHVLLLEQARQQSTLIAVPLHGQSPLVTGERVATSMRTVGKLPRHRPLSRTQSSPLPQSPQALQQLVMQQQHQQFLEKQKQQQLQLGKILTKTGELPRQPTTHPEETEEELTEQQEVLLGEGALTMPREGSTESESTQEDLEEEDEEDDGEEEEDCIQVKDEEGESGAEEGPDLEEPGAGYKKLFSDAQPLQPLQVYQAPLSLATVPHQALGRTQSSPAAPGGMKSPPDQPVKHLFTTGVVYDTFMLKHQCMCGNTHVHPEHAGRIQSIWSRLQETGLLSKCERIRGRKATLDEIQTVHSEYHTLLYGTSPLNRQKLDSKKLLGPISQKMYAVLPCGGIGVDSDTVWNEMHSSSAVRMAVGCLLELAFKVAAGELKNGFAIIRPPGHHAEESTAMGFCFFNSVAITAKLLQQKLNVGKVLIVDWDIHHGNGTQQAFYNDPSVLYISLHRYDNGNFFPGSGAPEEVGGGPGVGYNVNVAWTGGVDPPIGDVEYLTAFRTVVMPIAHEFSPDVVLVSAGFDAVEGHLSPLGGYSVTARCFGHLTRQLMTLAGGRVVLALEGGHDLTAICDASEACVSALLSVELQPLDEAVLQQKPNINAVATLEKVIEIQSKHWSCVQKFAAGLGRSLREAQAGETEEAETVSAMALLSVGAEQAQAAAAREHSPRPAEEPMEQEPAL
HDAC3, sequence (O15379 whole entry): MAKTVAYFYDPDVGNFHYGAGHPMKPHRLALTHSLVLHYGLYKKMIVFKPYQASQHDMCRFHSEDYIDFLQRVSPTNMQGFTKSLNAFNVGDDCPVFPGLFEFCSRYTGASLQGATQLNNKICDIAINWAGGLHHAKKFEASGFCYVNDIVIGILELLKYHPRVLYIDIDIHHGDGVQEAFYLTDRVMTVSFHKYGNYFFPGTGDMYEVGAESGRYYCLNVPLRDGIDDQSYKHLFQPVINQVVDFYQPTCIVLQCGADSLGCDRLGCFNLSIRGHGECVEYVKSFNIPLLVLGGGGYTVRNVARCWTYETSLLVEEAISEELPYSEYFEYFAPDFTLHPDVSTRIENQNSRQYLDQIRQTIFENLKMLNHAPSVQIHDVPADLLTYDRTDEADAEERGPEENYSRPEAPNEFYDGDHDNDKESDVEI
HDAC3, sequence (Q9Y618 395-489 partner limits assumed): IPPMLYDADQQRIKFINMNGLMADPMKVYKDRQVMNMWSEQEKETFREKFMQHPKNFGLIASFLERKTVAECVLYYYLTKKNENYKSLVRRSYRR
HDAC4, sequence (P56524 whole entry): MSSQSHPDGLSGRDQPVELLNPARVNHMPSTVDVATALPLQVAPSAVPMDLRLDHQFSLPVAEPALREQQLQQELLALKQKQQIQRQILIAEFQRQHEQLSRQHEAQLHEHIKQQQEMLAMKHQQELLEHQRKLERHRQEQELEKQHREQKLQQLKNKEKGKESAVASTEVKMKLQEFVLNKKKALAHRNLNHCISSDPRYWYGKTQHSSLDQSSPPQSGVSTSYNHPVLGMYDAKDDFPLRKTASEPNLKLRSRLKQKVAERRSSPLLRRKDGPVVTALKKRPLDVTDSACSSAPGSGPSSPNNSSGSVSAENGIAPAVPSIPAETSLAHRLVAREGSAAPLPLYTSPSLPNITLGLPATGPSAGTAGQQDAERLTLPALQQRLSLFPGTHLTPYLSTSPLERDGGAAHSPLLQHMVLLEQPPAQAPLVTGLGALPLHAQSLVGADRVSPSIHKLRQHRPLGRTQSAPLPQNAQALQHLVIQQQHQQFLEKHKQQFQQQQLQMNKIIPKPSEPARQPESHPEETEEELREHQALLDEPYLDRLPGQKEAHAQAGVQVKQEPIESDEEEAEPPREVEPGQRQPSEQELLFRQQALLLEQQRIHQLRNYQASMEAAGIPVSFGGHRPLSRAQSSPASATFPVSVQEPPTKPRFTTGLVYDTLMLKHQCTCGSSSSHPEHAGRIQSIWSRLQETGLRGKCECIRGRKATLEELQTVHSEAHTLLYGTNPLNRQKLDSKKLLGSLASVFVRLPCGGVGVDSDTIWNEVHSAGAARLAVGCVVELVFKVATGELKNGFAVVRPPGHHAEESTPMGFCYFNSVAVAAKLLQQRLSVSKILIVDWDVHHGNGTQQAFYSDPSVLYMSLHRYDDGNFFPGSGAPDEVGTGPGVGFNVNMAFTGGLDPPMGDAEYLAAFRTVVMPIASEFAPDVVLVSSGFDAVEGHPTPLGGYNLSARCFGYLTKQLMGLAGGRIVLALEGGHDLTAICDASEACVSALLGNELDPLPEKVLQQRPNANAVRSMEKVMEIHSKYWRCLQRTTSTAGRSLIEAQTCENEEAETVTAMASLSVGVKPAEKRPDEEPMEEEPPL

inhibition of HDAC1 (HDAC1)	inhibition of HDAC2 (HDAC2)	inhibition of HDAC3 (HDAC3)	inhibition of HDAC8 (HDAC8)	IC50 (HDAC6; 10-dose, 3-fold serial dilution, Compound 3 in duplicate starting at 120 µM, read-out: IC50) [µM]	IC50 (HDAC6; as stated in text and legend of Figure 6, read-out: IC50) [µM]	HILLSLOPE (HDAC6; curve fit)	IC50 (HDAC6; curve fit printed in the picture of Figure 6, read-out: HDAC 6: EC50) [µM]	inhibition of HDAC4 (HDAC4)	inhibition of HDAC5 (HDAC5)	inhibition of HDAC7 (HDAC7)	inhibition of HDAC9 (HDAC9)	Compound	optimal concentration for apoptosis induction (W2 cells) [µM]	cell death in W2 cells (W2 cells)	cell death in D3 cells (D3 cells)	inhibition of HDAC6 (HDAC6)	cytotoxicity (P-388)	cytotoxicity (HT-29)	cytotoxicity (A549)
–	–	–	–	–	–	–	–	–	–	–	–	C=C1CC/C=C(\C)CC[C@@H]2C(C(CC3OC3(C)C)OC(C)=O)=CO[C@H](OC)[C@@H]12 (relative stereo) [Compound 2]	11.5	induce measurable cell death in W2	not in D3 cells	–	–	–	–
did not significantly inhibit	did not significantly inhibit	did not significantly inhibit	did not significantly inhibit	80.9	~80	−1.19	80.9	did not significantly inhibit	did not significantly inhibit	did not significantly inhibit	did not significantly inhibit	C=C1CC[C@@H]2O[C@@]2(C)CC[C@H](/C(=C/CC2OC2(C)C)CO)[C@H]1C(=O)OC (relative stereo) [Compound 3]	1.2	induce measurable cell death in W2	not in D3 cells	inhibits selectively HDAC6 in high micromolar concentrations	–	–	–
–	–	–	–	–	–	–	–	–	–	–	–	C=C1CC[C@@H]2O[C@@]2(C)CC[C@H](/C(=C\CC2OC2(C)C)COC(C)=O)[C@H]1C(=O)OC (stereo partly shown) [xenitacin]	–	–	–	–	most active compound in its group	most active compound in its group	most active compound in its group
